The compounds below were run on HBsAg (assay: HBsAg assay (CLIA of secreted HBsAg in HepG2.2.15 culture supernatant)). Settings: Hepatitis B virus, HepG2.2.15, read-out: IC50 (HBsAg assay).
Assay type: cell-based, HBV
Description: HepG2.2.15 cells (Acs et al. Proc Natl Acad Sci USA, 84, (1987), 4641-4), a constitutively HBV-expressing cell line were cultured in DMEM+Glutamax-I medium (Invitrogen, Carlsbad, Calif., USA), supplemented with 10% fetal bovine serum (Invitrogen) and G418 (Invitrogen) at a final concentration of 200 mg/L and maintained in 5% CO2 at 37° C.
HepG2.2.15 cells were seeded in duplicate into white, 96-well plates at 1.5×10^4 cells/well. The cells were treated with a three-fold serial dilution series of the compounds in DMSO. The final DMSO concentration in all wells was 1% and DMSO was used as no drug control.
The HBsAg chemiluminescence immunoassay (CLIA) kit (Autobio Diagnostics Co., Zhengzhou, China, Catalog number: CL0310-2) was used to measure the levels of secreted HBV antigens semi-quantitatively. For the detection 50 μL/well culture supernatant was used and HBsAg was quantified using HBsAg chemiluminescence immunoassay (CLIA) kit (Autobio Diagnostics Co., Zhengzhou, China, Catalog number: CL0310-2), 50 μL of the supernatant was transferred to the CLIA assay plate and 50 μL of enzyme conjugate reagent was added into each well. The plates were sealed and gently agitated for 1 hour at room temperature. The supernatant-enzyme-mixture was discarded and wells were washed 6 times with 300 μL of PBS. The residual liquid was removed by plating the CLIA plate right side down on absorbent tissue paper. 25 μL of substrates A and B were added to each well. Luminance was measured using a luminometer (Mithras LB 940 Multimode Microplate Reader) after 10 minutes incubation. Dose-response curves were generated and the IC50 value was extrapolated by using the E-WorkBook Suite (ID Business Solutions Ltd., Guildford, UK). The IC50 was defined as the compound concentration at which HBsAg secretion was reduced by 50% compared to the no drug control.

First: COc1ccc(C(=O)N2CCc3nc(-c4ccccn4)ncc3C2)cc1F [Example 7, (3-Fluoro-4-methoxy-phenyl)-[2-(2-pyridyl)-7,8-dihydro-5H-pyrido[4,3-d]pyrimidin-6-yl]methanone]
Second: COc1cc(C(=O)N2CCc3nc(-c4ccccn4)ncc3C2)ccc1F [Example 9, (4-Fluoro-3-methoxy-phenyl)-[2-(2-pyridyl)-7,8-dihydro-5H-pyrido[4,3-d]pyrimidin-6-yl]methanone]
The IC50 of the first is 2.4-fold lower: 4.86 µM for the first, 11.5 µM for the second.

First: COCCCOc1ccc(C(=O)N2CCc3nc(-c4ncccn4)ncc3C2C)cc1Cl (centres unmarked) [Example 40, [3-Chloro-4-(3-methoxypropoxy)phenyl]-(5-methyl-2-pyrimidin-2-yl-7,8-dihydro-5H-pyrido[4,3-d]pyrimidin-6-yl)methanone]
Second: CC1c2cnc(-c3ncccn3)nc2CCN1C(=O)c1n[nH]c2ccc(F)cc12 (centres unmarked) [Example 64, (5-Fluoro-1H-indazol-3-yl)-(5-methyl-2-pyrimidin-2-yl-7,8-dihydro-5H-pyrido[4,3-d]pyrimidin-6-yl)methanone]
The IC50 of the first is 9.2-fold higher: 1.93 µM for the first, 0.21 µM for the second.

First: CC1c2cnc(-c3ccccn3)nc2CCN1C(=O)c1ccsc1 (centres unmarked) [Example 44, [5-Methyl-2-(2-pyridyl)-7,8-dihydro-5H-pyrido[4,3-d]pyrimidin-6-yl]-(3-thienyl)methanone]
Second: CC1c2cnc(-c3ccccn3)nc2CCN1C(=O)c1cccs1 (centres unmarked) [Example 49, [5-Methyl-2-(2-pyridyl)-7,8-dihydro-5H-pyrido[4,3-d]pyrimidin-6-yl]-(2-thienyl)methanone]
The IC50 of the first is 2.2-fold higher: 2.46 µM for the first, 1.11 µM for the second. The second is the more potent here.

First: CC1c2cnc(-c3ncccn3)nc2CCN1C(=O)c1nn(Cc2ccccc2)c2ccccc12 (centres unmarked) [Example 65, (1-Benzylindazol-3-yl)-(5-methyl-2-pyrimidin-2-yl-7,8-dihydro-5H-pyrido[4,3-d]pyrimidin-6-yl)methanone]
Second: CC1c2cnc(-c3ccccn3)nc2CCN1C(=O)c1ccc(Cl)s1 (centres unmarked) [Example 42, (5-Chloro-2-thienyl)-[5-methyl-2-(2-pyridyl)-7,8-dihydro-5H-pyrido[4,3-d]pyrimidin-6-yl]methanone]
The IC50 of the first is 1.5-fold higher: 0.39 µM for the first, 0.258 µM for the second. The second is the more potent here.

`Cc1cc(C(=O)N2CCc3nc(-c4ccccn4)ncc3C2)ccc1F` [Example 20, (4-Fluoro-3-methyl-phenyl)-[2-(2-pyridyl)-7,8-dihydro-5H-pyrido[4,3-d]pyrimidin-6-yl]methanone] and `Cc1ccc(C(=O)N2CCc3nc(-c4ccccn4)ncc3C2)cc1F` [Example 28, (3-Fluoro-4-methyl-phenyl)-[2-(2-pyridyl)-7,8-dihydro-5H-pyrido[4,3-d]pyrimidin-6-yl]methanone] are within 1.5-fold of each other in IC50: 7.85 µM for the first, 9.34 µM for the second.

Compared with `COCCOc1ccc(C(=O)N2CCc3nc(-c4ccccn4)ncc3C2)cc1F` [Example 14, [3-Fluoro-4-(2-methoxyethoxy)phenyl]-[2-(2-pyridyl)-7,8-dihydro-5H-pyrido[4,3-d]pyrimidin-6-yl]methanone], `CCOc1ccc(C(=O)N2CCc3nc(-c4ccccn4)ncc3C2)cc1F` [Example 13, (4-Ethoxy-3-fluoro-phenyl)-[2-(2-pyridyl)-7,8-dihydro-5H-pyrido[4,3-d]pyrimidin-6-yl]methanone] is 3-fold lower in IC50: 20 µM for the first, 6.56 µM for the second. The second is the more potent here.

Going from `Cc1cc(C(=O)N2CCc3nc(-c4ccccn4)ncc3C2)no1` [Example 33, (5-Methylisoxazol-3-yl)-[2-(2-pyridyl)-7,8-dihydro-5H-pyrido[4,3-d]pyrimidin-6-yl]methanone] to `Cc1ccc(C(=O)N2CCc3nc(-c4ccccn4)ncc3C2)nc1` [Example 27, (5-Methyl-2-pyridyl)-[2-(2-pyridyl)-7,8-dihydro-5H-pyrido[4,3-d]pyrimidin-6-yl]methanone], the IC50 rises from 8.11 µM to 24.2 µM (3-fold). The first is the more potent here.

First: O=C(c1ccc([N+](=O)[O-])cc1)N1CCc2nc(-c3ccccn3)ncc2C1 [Example 3, (4-Nitrophenyl)-[2-(2-pyridyl)-7,8-dihydro-5H-pyrido[4,3-d]pyrimidin-6-yl]methanone]
Second: N#Cc1ccc(C(=O)N2CCc3nc(-c4ccccn4)ncc3C2)cc1 [Example 2, 4-[2-(2-Pyridyl)-7,8-dihydro-5H-pyrido[4,3-d]pyrimidine-6-carbonyl]benzonitrile]
The IC50 of the first is 1.6-fold higher: 27.3 µM for the first, 17 µM for the second.

`Cc1csc(C(=O)N2CCc3nc(-c4ccccn4)ncc3C2C)c1` (centres unmarked) [Example 41, [5-Methyl-2-(2-pyridyl)-7,8-dihydro-5H-pyrido[4,3-d]pyrimidin-6-yl]-(4-methyl-2-thienyl)methanone] and `Cc1ccc(C(=O)N2CCc3nc(-c4ccccn4)ncc3C2C)s1` (centres unmarked) [Example 43, [5-Methyl-2-(2-pyridyl)-7,8-dihydro-5H-pyrido[4,3-d]pyrimidin-6-yl]-(5-methyl-2-thienyl)methanone] are within 1.5-fold of each other in IC50: 0.38 µM for the first, 0.326 µM for the second.

First: CC1c2cnc(-c3ccccn3)nc2CCN1C(=O)c1ncco1 (centres unmarked) [Example 60, [5-Methyl-2-(2-pyridyl)-7,8-dihydro-5H-pyrido[4,3-d]pyrimidin-6-yl]-oxazol-2-yl-methanone]
Second: CC1c2cnc(-c3ccccn3)nc2CCN1C(=O)c1nccs1 (centres unmarked) [Example 51, [5-Methyl-2-(2-pyridyl)-7,8-dihydro-5H-pyrido[4,3-d]pyrimidin-6-yl]-thiazol-2-yl-methanone]
The IC50 of the first is 4.2-fold higher: 2.61 µM for the first, 0.627 µM for the second. The second is the more potent here.

`COc1c(F)cc(C(=O)N2CCc3nc(-c4ccccn4)ncc3C2)cc1F` [Example 30, (3,5-Difluoro-4-methoxy-phenyl)-[2-(2-pyridyl)-7,8-dihydro-5H-pyrido[4,3-d]pyrimidin-6-yl]methanone] and `COc1cc(F)cc(C(=O)N2CCc3nc(-c4ccccn4)ncc3C2)c1` [Example 38, (3-Fluoro-5-methoxy-phenyl)-[2-(2-pyridyl)-7,8-dihydro-5H-pyrido[4,3-d]pyrimidin-6-yl]methanone] are within 1.5-fold of each other in IC50: 25.2 µM for the first, 21.7 µM for the second.

Compared with `CC1c2cnc(-c3ccccn3)nc2CCN1C(=O)c1cncs1` (centres unmarked) [Example 54, [5-Methyl-2-(2-pyridyl)-7,8-dihydro-5H-pyrido[4,3-d]pyrimidin-6-yl]-thiazol-5-yl-methanone], `CC1c2cnc(-c3ccccn3)nc2CCN1C(=O)c1nccn1C` (centres unmarked) [Example 57, (1-Methylimidazol-2-yl)-[5-methyl-2-(2-pyridyl)-7,8-dihydro-5H-pyrido[4,3-d]pyrimidin-6-yl]methanone] is 3.6-fold lower in IC50: 11.5 µM for the first, 3.23 µM for the second.

Compared with `COc1cc(C(=O)N2CCc3nc(-c4ccccn4)ncc3C2)ccc1O` [Example 25, (4-Hydroxy-3-methoxy-phenyl)-[2-(2-pyridyl)-7,8-dihydro-5H-pyrido[4,3-d]pyrimidin-6-yl]methanone], `COc1ccc(C(=O)N2CCc3nc(-c4ccccn4)ncc3C2)cc1Cl` [Example 21, (3-Chloro-4-methoxy-phenyl)-[2-(2-pyridyl)-7,8-dihydro-5H-pyrido[4,3-d]pyrimidin-6-yl]methanone] is 6.8-fold lower in IC50: 34.3 µM for the first, 5.07 µM for the second. The second is the more potent here.

`CCOc1cc(OCC)cc(C(=O)N2CCc3nc(-c4ccccn4)ncc3C2)c1` [Example 17, (3,5-Diethoxyphenyl)-[2-(2-pyridyl)-7,8-dihydro-5H-pyrido[4,3-d]pyrimidin-6-yl]methanone] and `COc1cc(C(=O)N2CCc3nc(-c4ccccn4)ncc3C2)cc(OC)c1OC` [Example 16, [2-(2-Pyridyl)-7,8-dihydro-5H-pyrido[4,3-d]pyrimidin-6-yl]-(3,4,5-trimethoxyphenyl)methanone] are within 1.5-fold of each other in IC50: 7.66 µM for the first, 8.23 µM for the second.

Compared with `COc1ccc(C(=O)N2CCc3nc(-c4ccccn4)ncc3C2)cc1` [Example 39, (4-Methoxyphenyl)-[2-(2-pyridyl)-7,8-dihydro-5H-pyrido[4,3-d]pyrimidin-6-yl]methanone], `O=C(c1ccc(F)c(O)c1)N1CCc2nc(-c3ccccn3)ncc2C1` [Example 11, (4-Fluoro-3-hydroxy-phenyl)-[2-(2-pyridyl)-7,8-dihydro-5H-pyrido[4,3-d]pyrimidin-6-yl]methanone] is 2-fold higher in IC50: 10.6 µM for the first, 21 µM for the second.

Going from `Cc1csc(C(=O)N2CCc3nc(-c4ccccn4)ncc3C2)c1` [Example 32, (4-Methyl-2-thienyl)-[2-(2-pyridyl)-7,8-dihydro-5H-pyrido[4,3-d]pyrimidin-6-yl]methanone] to `O=C(c1cccc(C(F)(F)F)c1)N1CCc2nc(-c3ccccn3)ncc2C1` [Example 6, [2-(2-Pyridyl)-7,8-dihydro-5H-pyrido[4,3-d]pyrimidin-6-yl]-[3-(trifluoromethyl)phenyl]methanone], the IC50 rises from 1.67 µM to 18.7 µM (11-fold). The first is the more potent here.

First: Cc1nc(C(=O)N2CCc3nc(-c4ccccn4)ncc3C2C)sc1C (centres unmarked) [Example 61, (4,5-Dimethylthiazol-2-yl)-[5-methyl-2-(2-pyridyl)-7,8-dihydro-5H-pyrido[4,3-d]pyrimidin-6-yl]methanone]
Second: CCC1c2cnc(-c3ccccn3)nc2CCN1C(=O)c1ccc(OC)c(OC)c1 (single isomer, unassigned; (-)) [Example 35, (−)-(3,4-Dimethoxyphenyl)-[5-ethyl-2-(2-pyridyl)-7,8-dihydro-5H-pyrido[4,3-d]pyrimidin-6-yl]methanone]
The IC50 of the first is 33-fold lower: 0.082 µM for the first, 2.72 µM for the second.

Work on `COCCCOc1ccc(C(=O)N2CCc3nc(-c4ccccn4)ncc3C2)cc1OC` [Example 26, [3-Methoxy-4-(3-methoxypropoxy)phenyl]-[2-(2-pyridyl)-7,8-dihydro-5H-pyrido[4,3-d]pyrimidin-6-yl]methanone] yielded an IC50 of 3.18 µM.
